Read-outs that look alike come from different tables or passages of the source.

Experimental findings from patent US12053479B2, “Transdermal treatment for erectile dysfunction” (Madera Pharmaceuticals, Inc., priority 2020, dated 2024) are described below.

Series [1] is described as follows: Drug solubility in individual excipients.
Series [2] can be described thus: In vitro permeation testing (IVPT), diffusion cell. As to conditions: cumulative amount in receptor solution versus time (FIGS. 2-4).
Source text: With reference to FIG. 1, in vitro skin permeation experiments used a diffusion cell designed to mimic the physiological and anatomical conditions of skin in situ. The diffusion cell included a donor compartment configured to receive the formulation, or solvent system, to be tested. A receptor compartment included a flow path for receptor solution, which was to be analyzed. Dermatomed skin was arranged between the donor compartment and receptor compartment. As such, a formulation comprising the solvent system having the drug is applied to the skin in the donor compartment. A portion of the drug permeated through the skin into the receptor solution, which was analyzed to determine drug concentration at several time periods, including 0.25, 0.5, 1, 1.5 2, 4, 6 and 8 hours. […]
The receptor solution was collected and analyzed as discussed. The cumulative amount per cm^2 of phentolamine, papaverine, and prostaglandin permeated into the receptor solution was calculated from drug concentrations measured in the receptor solution over time. The cumulative amount per cm^2 of phentolamine, papaverine, and prostaglandin at the final timepoint was calculated for each replicate. […] Means and standard errors were calculated and reported in figures and tables, including Tables 5 and 6 below.
Where [3] appears, read: in water, buffer solutions (pH 4 and 7) and glycerol.

In the case of `COc1ccc(Cc2nccc3cc(OC)c(OC)cc23)cc1OC.Cl` [Papaverine HCl, papaverine hydrochloride], the Saturated solubility (solvent system SSAG01, all three drugs combined) came to 7.58 % w/w; the Saturated solubility (solvent system SSAG01, drug added individually) stood at 6.39 % w/w; the Saturated solubility (solvent system SSAG02, all three drugs combined) turned out to be 9.44 % w/w; the Saturated solubility (solvent system SSAG02, drug added individually) is reported as 7.21 % w/w; the Saturated solubility (upon addition of phentolamine mesylate and prostaglandin E1, span over all solvent systems) is reported as 7.58-9.44 % w/w. Further, the “Solubility (in words)” value in series [1] (in ethanol and transcutol P) is recorded as “poorly soluble”; in series [1] (setting [3]), “moderately soluble”. Moreover, in series [1] (setting [3]), the Solubility was 2-3 % w/w. Besides, the “Amount permeated through the skin, SSAG02 with all of the drugs versus SSAG02 with the drug alone” value in series [2] is given as “much greater amount”.
With `CCCCC[C@H](O)/C=C/[C@H]1[C@H](O)CC(=O)[C@@H]1CCCCCCC(=O)O` [Prostaglandin E1], the “Solubility (in words)” value in series [1] (in ethanol and transcutol P) is given as “strongly soluble”; in series [1] (setting [3]) it was “poorly soluble”.
